The text below walks through data of ChEMBL document CHEMBL4000222, “Synthetic strategy for increasing solubility of potential FLT3 inhibitor thieno[2,3-d]pyrimidine derivatives through structural modifications at the C2 and C6 positions” (Bioorg Med Chem Lett, 2017).

Molecules are shown by their SMILES. Values after ≈ are worked out from the molar mass of the structure shown.

The term solubility denotes the dissolved amount per volume that the medium holds. A word on the GI50: it is the concentration that inhibits growth by half. Read a high GI50 as lower sensitivity of the cells. By IC50 is commonly meant the concentration that gives 50% inhibition. Lower therefore signals higher potency.

Data set [1] is described as follows: Stability in human liver microsomes assessed as compound remaining after 30 mins. The class given is ADME, microsome. To be noted: read-out: Stability. On the technique in general: Liver microsomes are a subcellular fraction often used to study metabolism.
Data set [2] in a line: Stability in rat liver microsomes assessed as compound remaining after 30 mins. To be noted: read-out: Stability. The data set is classed as ADME, microsome.
Data set [3] in a line: Solubility of the compound in phosphate buffered saline kept in shaker for 1 hr. The data set is classed as physicochemical.
Data set [4] is described as follows: Solubility of the compound in distilled water kept in shaker for 1 hr. The data set is classed as physicochemical.
The next data set has as its system HL-60. The experiment in a line: cells. To be noted: Homo sapiens.
The next data set concerns K562. The experiment in a line: cells. The following applies: Homo sapiens.
Data set [5] has as its target T1, Receptor-type tyrosine-protein kinase FLT3 (Homo sapiens, UniProt P36888).
T1 sequence (P36888 whole entry): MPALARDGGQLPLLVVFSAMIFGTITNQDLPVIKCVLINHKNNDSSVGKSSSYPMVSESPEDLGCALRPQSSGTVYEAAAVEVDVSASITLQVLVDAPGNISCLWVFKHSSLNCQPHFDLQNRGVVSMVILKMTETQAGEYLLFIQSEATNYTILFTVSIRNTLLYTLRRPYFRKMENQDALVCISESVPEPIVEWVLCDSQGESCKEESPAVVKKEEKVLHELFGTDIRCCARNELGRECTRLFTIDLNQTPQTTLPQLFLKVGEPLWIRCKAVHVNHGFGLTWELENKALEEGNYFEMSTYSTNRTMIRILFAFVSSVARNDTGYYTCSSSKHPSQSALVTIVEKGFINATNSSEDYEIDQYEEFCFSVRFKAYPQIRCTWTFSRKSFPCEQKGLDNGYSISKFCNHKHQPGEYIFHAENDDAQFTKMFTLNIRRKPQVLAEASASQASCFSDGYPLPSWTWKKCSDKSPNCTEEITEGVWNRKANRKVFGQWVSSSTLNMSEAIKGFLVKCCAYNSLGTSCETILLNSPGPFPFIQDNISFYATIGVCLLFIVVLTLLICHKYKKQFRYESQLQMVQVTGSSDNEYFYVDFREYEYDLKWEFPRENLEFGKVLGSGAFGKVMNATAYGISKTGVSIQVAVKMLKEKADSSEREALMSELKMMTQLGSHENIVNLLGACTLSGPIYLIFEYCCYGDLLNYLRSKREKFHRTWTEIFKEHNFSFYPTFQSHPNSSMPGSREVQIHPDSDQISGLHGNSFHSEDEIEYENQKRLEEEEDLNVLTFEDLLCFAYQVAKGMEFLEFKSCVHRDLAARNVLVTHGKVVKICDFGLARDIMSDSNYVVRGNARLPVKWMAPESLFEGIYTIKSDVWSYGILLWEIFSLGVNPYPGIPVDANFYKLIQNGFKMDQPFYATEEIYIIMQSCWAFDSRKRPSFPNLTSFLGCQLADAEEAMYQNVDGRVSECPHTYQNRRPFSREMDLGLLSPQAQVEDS
Description: biochemical. The data set is classed as cell-based.
Description: Inhibition of N-terminal GST-tagged recombinant human wild-type FLT3 (564 to end residues) expressed in baculovirus infected sf21 cells using Abltide as substrate in presence of [gamma33P]ATP after 10 mins by scintillation counting method

For data set [6], the target named is Receptor-type tyrosine-protein kinase FLT3 (Homo sapiens, UniProt P36888, D835Y). Description: biochemical. The data set is classed as cell-based.
Description: Inhibition of N-terminal GST-tagged recombinant human wild-type FLT3 (564 to end residues) D835Y mutant expressed in baculovirus infected sf21 cells using Abltide as substrate in presence of [gamma33P]ATP after 10 mins by scintillation counting method
Another data set has as its system THP-1. Description: cells. The following applies: Homo sapiens.
The subject of the next data set is MV4-11. Description: cells. To be noted: Homo sapiens.

Description for HL-60: Growth inhibition of human HL60 cells harboring wild-type FLT3 by CCK8 assay
Description for K562: Growth inhibition of FLT3 null human K562 cells by CCK8 assay
Description for MV4-11: Growth inhibition of human MV4-11 cells harboring FLT3-ITD mutant by XTT assay
Description for THP-1: Growth inhibition of human THP1 cells harboring wild-type FLT3 by XTT assay

On to `CC1=CC(=O)N(Nc2nc(-c3cccs3)nc3sc(C)c(C)c23)C1=O`, for which the remaining at 0.5 h amounted to 32.4% in data set [1] and 22.7% in data set [2]. The solubility at 1 h in data set [3] turned out to be 1.04 µM (≈ 0.385 µg/mL); in data set [4], 1.28 µM (≈ 0.474 µg/mL). Besides, the GI50 was greater than 10000 nM in the data set with HL-60 and 102 nM in the data set on K562.

Take `CC1=CC(=O)N(Nc2nc(-c3ccco3)nc3sc(C)c(C)c23)C1=O`: the values for the IC50 in [5] and in data set [6] were 100 nM and 102 nM, respectively. The remaining at 0.5 h in data set [1] was 10.9%; in data set [2], 26.2%. Further, the solubility at 1 h in [3] was determined as 12.4 µM (≈ 4.38 µg/mL); in [4] it was 24.6 µM (≈ 8.73 µg/mL).

Regarding `CC1=CC(=O)N(Nc2nc(-c3ccc[nH]3)nc3sc(C)c(C)c23)C1=O`, the IC50 worked out at 79.3 nM in [5] and 89.2 nM in data set [6]. Moreover, the values for the remaining at 0.5 h in data set [1] and in [2] were 37.1% and 39.7%, respectively. The figures for the solubility at 1 h in [3] and in data set [4] were 0.16 µM (≈ 0.0565 µg/mL) and 0.87 µM (≈ 0.307 µg/mL), respectively. In addition, the GI50 in the data set with HL-60 was greater than 10000 nM; in the data set on K562, 1100 nM; with THP-1, 339 nM; in the data set with MV4-11, 452 nM.

As for `CC1=CC(=O)N(Nc2nc(-c3cccs3)nc3sc(C)cc23)C1=O`, the values for the remaining at 0.5 h in data set [1] and in data set [2] were 58.8% and 32.6%, respectively. The solubility at 1 h in [3] turned out to be 0.36 µM (≈ 0.128 µg/mL); in [4], 5.84 µM (≈ 2.08 µg/mL). The GI50 is greater than 10000 nM with HL-60 and 2570 nM in the data set on K562.

Take `CC1=CC(=O)N(Nc2nc(-c3ccc[nH]3)nc3sc(C)cc23)C1=O`: the values for the half-inhibitory concentration (IC50) in data set [5] and in data set [6] were 135 nM and 117 nM, respectively. Further, the remaining at 0.5 h in [1] is 40.4%; in [2], 39.1%. For the same compound, the solubility at 1 h came out at 0.59 µM (≈ 0.2 µg/mL) in [3] and 10.1 µM (≈ 3.42 µg/mL) in data set [4].

Take `CC1=CC(=O)N(Nc2nc(-c3ccc(F)cc3)nc3sc(C)c(C)c23)C1=O`: the IC50 in data set [5] came out at 211 nM; in data set [6] it was 172 nM. In addition, the remaining at 0.5 h in [1] was 20.7%; in [2], 19.6%. Besides, the solubility at 1 h in data set [3] and in data set [4] was less than 0.14 µM in each case.

`CNCCOc1ccc(-c2sc3nc(-c4cccs4)nc(NN4C(=O)C=C(C)C4=O)c3c2C)cc1` displayed an IC50 in data set [5] of 11.1 nM.

As to `CC1=CC(=O)N(Nc2nc(-c3ccc(F)cc3)nc3sc(C)cc23)C1=O`, the IC50 in data set [5] was 274 nM; in data set [6] it was 266 nM. The figures for the remaining at 0.5 h in data set [1] and in [2] were 42.6% and 8.58%, respectively. The solubility at 1 h in [3] and in data set [4] was less than 0.14 µM throughout.

Regarding `CC1=CC(=O)N(Nc2nc(-c3nccs3)nc3sc(C)c(C)c23)C1=O`, the IC50 in data set [5] came out at 16 nM; in data set [6], 21.4 nM. The results for the remaining at 0.5 h in [1] and in data set [2] were 45.7% and 17.7%, respectively. Also, the solubility at 1 h in data set [3] worked out at 36.8 µM (≈ 13.7 µg/mL); in [4] it was 25.3 µM (≈ 9.41 µg/mL). For the same compound, the GI50 in the data set with HL-60 is greater than 10000 nM; in the data set on K562 it was 532 nM; in the data set on THP-1 it was 141 nM; with MV4-11 it was 216 nM.

Consider `CC1=CC(=O)N(Nc2nc(-c3nccs3)nc3sc(C)cc23)C1=O`, for which the IC50 is 33.4 nM in [5] and 33.9 nM in data set [6]. Also, the remaining at 0.5 h in data set [1] stood at 27.5%; in [2] it was 14.5%. Moreover, the solubility at 1 h in [3] worked out at 2.8 µM (≈ 1 µg/mL); in data set [4] it was 1.43 µM (≈ 0.511 µg/mL). For the same compound, the GI50 in the data set with HL-60 is greater than 10000 nM; with K562, 1280 nM; in the data set with THP-1 it was 961 nM; in the data set on MV4-11, 1350 nM.

As for `CC1=CC(=O)N(Nc2nc(-c3ccco3)nc3sc(C)cc23)C1=O`, the IC50 in data set [5] was 171 nM; in data set [6], 129 nM. The remaining at 0.5 h turned out to be 35.1% in [1] and 34.8% in data set [2]. Also, the solubility at 1 h in [3] was 28.5 µM (≈ 9.69 µg/mL); in [4], 40.6 µM (≈ 13.8 µg/mL).
